# Assay results from the supplement of paper PMC10307832.
# Experiments:
# Assay in all cases: relative viability (nuclei count vs DMSO), 5 days (fraction); higher = more cells survive
# Tosedostat + Phenformin = compound: CC(C)C[C@@H](C(=O)N[C@H](C(=O)OC1CCCC1)c1ccccc1)[C@H](O)C(=O)NO [Tosedostat] + N=C(N)NC(=N)NCCc1ccccc1 [Phenformin] (partner 250 µM)
# How it was run: (§1)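 The day after seeding in 1536-well plates, lung cancer cell lines were treated by pin tool with a single drug, or with a fixed anchor-drug dose together with five library-drug doses (not always all listed) in √10 steps. After 5 days, a combined fix-and-stain solution (final 0.05% Triton X-100, 1% formaldehyde, 1 ug/ml Hoechst) was added. Nuclei counted on 4× images gave relative viability as treated counts over vehicle counts, reported as the median of duplicate plates.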
# [1] = compound: CC1=NN=C(O1)C2=NN=C(C=C2)N3CCC(CC3)OC4=C(C=CC(=C4)F)Cl + CC(=O)Nc1cccc(-n2c(=O)n(C3CC3)c(=O)c3c(Nc4ccc(I)cc4F)n(C)c(=O)c(C)c32)c1 [Trametinib] (partner 0.02 µM)
# How it was run: as §1
# [2] = compound: CC1=NN=C(O1)C2=NN=C(C=C2)N3CCC(CC3)OC4=C(C=CC(=C4)F)Cl + O=C(CCCCCCC(=O)Nc1ccccc1)NO [Vorinostat] (partner 1 µM)
# How it was run: as §1
# [3] = compound: CC1=NN=C(O1)C2=NN=C(C=C2)N3CCC(CC3)OC4=C(C=CC(=C4)F)Cl + CS(=O)(=O)N1CCN(Cc2cc3nc(-c4cccc5[nH]ncc45)nc(N4CCOCC4)c3s2)CC1 [Pictilisib] (partner 1 µM)
# How it was run: as §1
Cell Line,relative viability (Tosedostat + Phenformin; first compound 0.02 µM),relative viability (Tosedostat + Phenformin; first compound 0.06325 µM),relative viability (Tosedostat + Phenformin; first compound 0.2 µM),relative viability (Tosedostat + Phenformin; first compound 0.6325 µM),relative viability (Tosedostat + Phenformin; first compound 2 µM),relative viability ([1]; first compound 0.253 µM),relative viability ([1]; first compound 0.8 µM),relative viability ([1]; first compound 2.53 µM),relative viability ([1]; first compound 8 µM),relative viability ([2]; first compound 0.253 µM),relative viability ([2]; first compound 0.8 µM),relative viability ([2]; first compound 2.53 µM),relative viability ([2]; first compound 8 µM),relative viability ([3]; first compound 0.253 µM),relative viability ([3]; first compound 0.8 µM),relative viability ([3]; first compound 2.53 µM),relative viability ([3]; first compound 8 µM)
201T,0.425,0.445,0.461,0.428,0.445,0.414,0.425,0.405,0.384,0.474,0.501,0.478,0.479,0.537,0.634,0.681,0.663
A549,0.154,0.217,0.233,0.101,0.116,–,–,–,–,–,–,–,–,0.406,0.255,0.319,0.234
A-427,0.322,0.393,0.376,0.301,0.323,0.818,0.711,0.869,0.825,0.796,0.689,0.791,0.703,0.859,–,0.675,0.54
ABC-1,0.201,0.201,0.247,0.23,0.206,–,–,–,–,0.542,0.487,0.402,0.525,0.389,0.532,0.547,0.464
BEN,0.263,0.251,0.269,0.253,0.273,1.1,1.12,1.03,1.17,0.566,0.536,0.551,0.538,0.571,0.62,0.68,0.584
CAL-12T,0.639,0.552,0.508,0.446,0.371,0.337,0.313,0.255,0.217,0.524,0.542,0.566,0.368,0.392,0.553,0.327,0.191
COR-L23,0.486,0.386,0.415,0.383,0.401,0.498,0.396,0.529,0.444,0.332,0.378,0.375,0.316,0.66,0.621,0.686,0.469
COR-L 105,0.517,0.465,0.447,0.399,0.363,0.488,0.424,0.414,0.429,0.797,0.919,0.794,0.8,0.426,0.405,0.334,0.378
Calu-6,–,–,–,–,–,–,–,–,–,–,–,–,–,0.735,0.747,0.702,0.696
ChaGo-K-1,0.435,0.522,0.487,0.412,0.359,0.649,0.555,0.613,0.57,0.546,0.444,0.55,0.448,0.633,0.681,0.508,0.548
EBC-1,–,–,–,–,–,–,–,–,–,–,–,–,–,0.33,0.485,0.473,0.408
EKVX,0.216,0.236,0.228,0.202,0.192,0.26,0.254,0.26,0.286,0.439,0.381,0.442,0.463,0.323,0.31,0.388,0.345
EMC-BAC-2,0.495,0.508,0.552,0.473,0.442,0.873,0.736,0.791,0.65,0.512,0.426,0.446,0.239,0.534,0.531,0.572,0.454
EPLC-272H,0.288,0.299,0.259,0.239,0.189,0.267,0.247,0.291,0.309,0.352,0.529,0.313,0.387,0.399,–,0.41,0.309
H3255,0.361,0.369,0.386,0.407,0.402,0.407,0.491,0.573,0.483,0.581,0.597,0.533,0.557,0.505,0.438,0.433,0.397
HARA,0.505,0.383,0.433,0.326,0.35,0.438,0.369,0.448,0.322,0.476,0.345,0.499,0.432,0.263,0.282,0.336,0.191
HCC-15,0.512,0.46,0.432,0.348,0.32,0.404,0.399,0.376,0.385,0.534,0.431,0.511,0.554,0.583,0.566,0.6,0.546
HCC-44,0.19,0.221,0.183,0.111,0.117,0.608,0.994,0.945,0.856,0.584,0.708,0.698,0.423,0.42,0.444,0.578,0.472
HCC-78,0.644,0.68,0.637,0.671,0.752,0.338,0.396,0.433,0.365,0.425,0.48,0.393,0.381,0.204,0.234,0.11,0.184
HCC-366,0.573,0.623,0.638,0.532,0.6,0.16,0.23,0.268,0.193,0.0995,0.112,0.127,0.0801,0.12,0.197,0.15,0.142
HCC-827,0.401,0.443,0.397,0.355,0.301,0.42,0.343,0.431,0.399,0.382,0.207,0.322,0.377,0.544,0.571,0.609,0.605
HOP-62,0.663,0.615,0.685,0.569,0.437,0.361,0.361,0.361,0.397,0.543,0.243,0.287,0.203,0.652,–,0.645,0.331

Cell Line,relative viability (Tosedostat + Phenformin; first compound 0.02 µM),relative viability (Tosedostat + Phenformin; first compound 0.06325 µM),relative viability (Tosedostat + Phenformin; first compound 0.2 µM),relative viability (Tosedostat + Phenformin; first compound 0.6325 µM),relative viability (Tosedostat + Phenformin; first compound 2 µM),relative viability ([1]; first compound 0.253 µM),relative viability ([1]; first compound 0.8 µM),relative viability ([1]; first compound 2.53 µM),relative viability ([1]; first compound 8 µM),relative viability ([2]; first compound 0.253 µM),relative viability ([2]; first compound 0.8 µM),relative viability ([2]; first compound 2.53 µM),relative viability ([2]; first compound 8 µM),relative viability ([3]; first compound 0.253 µM),relative viability ([3]; first compound 0.8 µM),relative viability ([3]; first compound 2.53 µM),relative viability ([3]; first compound 8 µM)
IA-LM,–,–,–,–,–,–,–,–,–,0.402,0.296,0.435,0.364,0.173,0.195,0.203,0.187
LC-2-ad,0.692,0.555,0.56,0.438,0.508,0.369,0.35,0.349,0.328,0.321,0.254,0.322,0.284,0.423,0.416,0.4,0.386
LCLC-97TM1,0.402,0.433,0.445,0.403,0.439,0.175,–,0.191,0.148,0.649,–,0.522,0.573,0.234,–,0.213,0.239
LCLC-103H,0.361,0.308,0.323,0.323,0.32,0.533,0.522,0.489,0.431,0.503,0.478,0.531,0.475,0.556,0.479,0.567,0.473
LK-2,0.38,0.529,0.455,0.259,0.347,0.728,0.732,0.867,0.828,0.352,0.256,0.291,0.295,0.651,0.716,0.869,0.751
LOU-NH91,0.823,0.742,0.691,0.677,0.481,–,0.722,0.744,0.77,–,0.853,0.807,0.922,–,0.519,0.55,0.499
LU99A,0.925,0.903,0.821,0.641,0.547,0.525,0.59,0.577,0.509,0.549,0.456,0.534,0.563,0.303,0.327,0.304,0.34
LXF-289,0.495,0.493,0.479,0.495,0.399,0.603,0.582,0.637,0.58,0.637,0.418,0.586,0.463,0.69,0.718,0.687,0.6
NCI-H23,0.782,0.802,0.754,0.707,0.404,0.34,0.37,0.372,0.381,0.565,0.359,0.558,0.514,0.466,–,0.527,0.463
NCI-H322M,0.756,0.705,0.72,0.704,0.708,0.563,0.487,0.477,0.52,0.812,0.87,0.948,0.799,0.511,0.486,0.482,0.451
NCI-H358,0.387,0.3,0.223,0.219,0.238,0.131,0.137,0.146,0.124,0.405,0.341,0.399,0.35,0.355,0.345,0.387,0.357
NCI-H441,0.861,0.833,0.569,0.61,0.713,0.343,0.327,0.462,0.409,0.424,0.384,0.302,0.382,0.504,0.423,0.389,0.389
NCI-H460,0.551,0.473,0.505,0.426,0.48,0.0953,0.176,0.175,0.15,0.16,0.215,0.208,0.19,0.24,0.329,0.232,0.221
NCI-H520,0.391,0.593,0.585,0.712,0.782,0.656,0.578,0.648,0.475,0.561,0.712,0.569,0.613,0.3,0.325,0.29,0.316
NCI-H522,1.31,0.592,0.659,0.624,0.58,0.785,0.852,0.783,0.924,0.958,0.925,0.964,0.805,–,–,–,–
NCI-H1299,–,–,–,–,–,–,–,–,–,–,–,–,–,0.698,0.611,0.71,0.713
NCI-H1563,0.653,0.703,0.662,0.722,0.65,–,–,–,–,–,–,–,–,0.625,0.694,0.659,0.633
NCI-H1648,–,–,–,–,–,0.442,0.43,0.405,0.479,0.376,0.417,0.5,0.513,–,–,–,–
NCI-H1703,–,–,–,–,–,–,–,–,–,–,–,–,–,0.226,0.265,0.258,0.279
NCI-H1792,0.243,0.472,0.445,0.404,0.31,0.359,0.398,0.647,0.487,–,–,–,–,0.205,0.314,0.375,0.411
NCI-H2342,0.513,0.733,0.558,0.494,0.442,0.581,0.554,0.55,0.486,0.551,0.551,0.583,0.436,–,–,–,–
SW 900,0.496,0.606,0.478,0.367,0.417,–,0.749,0.862,0.621,–,0.287,0.418,0.28,–,–,–,–
